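Growth conditions: 96-well plates. Treatment: test compound, 48 hours, 5 concentrations. Analysis: linear interpolation between bracketing concentrations; unreached endpoints set to highest concentration. GI50: concentration for 50% inhibition of growth. TGI: total growth inhibition.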
Key:
Experiment in all cases: inhibition of tumour cell growth, NCI panel, 48 h
[1] = test system: 786-0 renal
[2] = test system: A498 renal
[3] = test system: A549 NSCLC
[4] = test system: ACHN renal
[5] = test system: BT-549 breast
[6] = test system: CAKI-1 renal
[7] = test system: CCRF-CEM leukemia
[8] = test system: COLO 205 colon
[9] = test system: DU-145 prostate
[10] = test system: EKVX NSCLC
[11] = test system: HCC-2998 colon
[12] = test system: HCT-116 colon
[13] = test system: HCT-15 colon
[14] = test system: HL-60(TB) leukemia
[15] = test system: HOP-62 NSCLC
[16] = test system: HOP-92 NSCLC
[17] = test system: HS 578T breast
[18] = test system: HT29 colon
[19] = test system: IGROV1 ovarian
[20] = test system: K-562 leukemia
[21] = test system: KM12 colon
[22] = test system: LOX IMVI melanoma
[23] = test system: M14 melanoma
[24] = test system: MALME-3M melanoma
[25] = test system: MCF7 breast
[26] = test system: MDA-MB-231 breast
[27] = test system: MDA-MB-435
[28] = test system: MOLT-4 leukemia
[29] = test system: NCI-H226 lung
[30] = test system: NCI-H23 lung
[31] = test system: NCI-H460 lung
[32] = test system: NCI-H522 lung
[33] = test system: NCI/ADR-RES ovarian
[34] = test system: OVCAR-3 ovarian
[35] = test system: OVCAR-4 ovarian
[36] = test system: OVCAR-5 ovarian
[37] = test system: OVCAR-8 ovarian
[38] = test system: PC-3 prostate
[39] = test system: RPMI-8226 leukemia
[40] = test system: RXF 393 renal
[41] = test system: SF-268 CNS
[42] = test system: SF-295 CNS
[43] = test system: SF-539 CNS
[44] = test system: SK-MEL-2 melanoma
[45] = test system: SK-MEL-28 melanoma
[46] = test system: SK-MEL-5 melanoma
[47] = test system: SK-OV-3 ovarian
[48] = test system: SN12C renal
[49] = test system: SNB-19 CNS
[50] = test system: SNB-75 CNS
[51] = test system: SR leukemia
[52] = test system: SW-620 colon
[53] = test system: T-47D breast
[54] = test system: TK-10 renal
[55] = test system: U251 CNS
[56] = test system: UACC-257 melanoma
[57] = test system: UACC-62 melanoma
[58] = test system: UO-31 renal

SMILES: CCN(CC)c1ccc(/C=N/NC(=O)c2ccc(NS(C)(=O)=O)cc2)c(O)c1
- GI50 [1]: 425 nM
- TGI [1]: 4200 nM
- GI50 [2]: 2950 nM
- TGI [2]: 25100 nM
- GI50 [3]: 1980 nM
- TGI [3]: > 48500 nM
- GI50 [4]: 497 nM
- TGI [4]: 20600 nM
- GI50 [5]: 658 nM
- TGI [5]: 8610 nM
- GI50 [6]: 434 nM
- TGI [6]: 17700 nM
- GI50 [7]: 169 nM
- TGI [7]: > 100000 nM
- GI50 [8]: 356 nM
- TGI [8]: 13500 nM
- GI50 [9]: 751 nM
- TGI [9]: 23300 nM
- GI50 [10]: 574 nM
- TGI [10]: > 63100 nM
- GI50 [11]: 572 nM
- TGI [11]: 19200 nM
- GI50 [12]: 330 nM
- TGI [12]: 19500 nM
- GI50 [13]: 386 nM
- TGI [13]: > 68800 nM
- GI50 [14]: 242 nM
- GI50 [15]: 267 nM
- TGI [15]: 6940 nM
- GI50 [16]: 386 nM
- TGI [16]: 20500 nM
- GI50 [17]: 1950 nM
- TGI [17]: 18300 nM
- GI50 [18]: 475 nM
- TGI [18]: 16700 nM
- GI50 [19]: 540 nM
- TGI [19]: > 70300 nM
- GI50 [20]: 443 nM
- TGI [20]: > 100000 nM
- GI50 [21]: 536 nM
- TGI [21]: 19600 nM
- GI50 [22]: 219 nM
- TGI [22]: 5300 nM
- GI50 [23]: 351 nM
- TGI [23]: 3630 nM
- GI50 [24]: 788 nM
- TGI [24]: 11700 nM
- GI50 [25]: 409 nM
- TGI [25]: 24500 nM
- GI50 [26]: 432 nM
- TGI [26]: 34900 nM
- GI50 [27]: 734 nM
- TGI [27]: 97200 nM
- GI50 [28]: 331 nM
- TGI [28]: 25600 nM
- GI50 [29]: 1010 nM
- TGI [29]: 31800 nM
- GI50 [30]: 1160 nM
- TGI [30]: 30600 nM
- GI50 [31]: 455 nM
- TGI [31]: 10200 nM
- GI50 [32]: 334 nM
- TGI [32]: 10400 nM
- GI50 [33]: 3180 nM
- TGI [33]: 98300 nM
- GI50 [34]: 185 nM
- TGI [34]: 26300 nM
- GI50 [35]: 355 nM
- TGI [35]: 42400 nM
- GI50 [36]: 2470 nM
- TGI [36]: > 100000 nM
- GI50 [37]: 355 nM
- TGI [37]: > 34000 nM
- GI50 [38]: 369 nM
- TGI [38]: > 54000 nM
- GI50 [39]: 2790 nM
- TGI [39]: 16200 nM
- GI50 [40]: 788 nM
- TGI [40]: 3230 nM
- GI50 [41]: 243 nM
- TGI [41]: 17300 nM
- GI50 [42]: 551 nM
- TGI [42]: 14800 nM
- GI50 [43]: 426 nM
- TGI [43]: 7070 nM
- GI50 [44]: 2010 nM
- TGI [44]: 16900 nM
- GI50 [45]: 444 nM
- TGI [45]: > 50900 nM
- GI50 [46]: 853 nM
- TGI [46]: 21300 nM
- GI50 [47]: 508 nM
- TGI [47]: 20100 nM
- GI50 [48]: 768 nM
- TGI [48]: 62600 nM
- GI50 [49]: 830 nM
- TGI [49]: 30700 nM
- GI50 [50]: 309 nM
- TGI [50]: 5650 nM
- GI50 [51]: 95.4 nM
- GI50 [52]: 468 nM
- TGI [52]: > 100000 nM
- GI50 [53]: 2050 nM
- TGI [53]: > 55300 nM
- GI50 [54]: 833 nM
- TGI [54]: 39900 nM
- GI50 [55]: 239 nM
- TGI [55]: > 37200 nM
- GI50 [56]: 568 nM
- TGI [56]: 18400 nM
- GI50 [57]: 381 nM
- TGI [57]: 7100 nM
- GI50 [58]: 397 nM
- TGI [58]: 20500 nM

From PubChem BioAssay (NCI)
